Measured values: patent EP4592286A1, “MACROCYCLIC NITROGEN-CONTAINING CROWN ETHER COMPOUND AND USE THEREOF AS PROTEIN KINASE INHIBITOR” (Artivila Biopharma, priority 2022, dated 2024)
Converted amounts (≈) assume the structure as drawn.

What was measured:
[1] = target: T1, JAK3 (Homo sapiens, UniProt P52333); assay: experiment of inhibiting kinase activity (Caliper mobility shift assay), JAK3; assay type: biochemical; settings: for IC50: kinase activity assay, Table 3
T1 sequence (P52333 1-1124): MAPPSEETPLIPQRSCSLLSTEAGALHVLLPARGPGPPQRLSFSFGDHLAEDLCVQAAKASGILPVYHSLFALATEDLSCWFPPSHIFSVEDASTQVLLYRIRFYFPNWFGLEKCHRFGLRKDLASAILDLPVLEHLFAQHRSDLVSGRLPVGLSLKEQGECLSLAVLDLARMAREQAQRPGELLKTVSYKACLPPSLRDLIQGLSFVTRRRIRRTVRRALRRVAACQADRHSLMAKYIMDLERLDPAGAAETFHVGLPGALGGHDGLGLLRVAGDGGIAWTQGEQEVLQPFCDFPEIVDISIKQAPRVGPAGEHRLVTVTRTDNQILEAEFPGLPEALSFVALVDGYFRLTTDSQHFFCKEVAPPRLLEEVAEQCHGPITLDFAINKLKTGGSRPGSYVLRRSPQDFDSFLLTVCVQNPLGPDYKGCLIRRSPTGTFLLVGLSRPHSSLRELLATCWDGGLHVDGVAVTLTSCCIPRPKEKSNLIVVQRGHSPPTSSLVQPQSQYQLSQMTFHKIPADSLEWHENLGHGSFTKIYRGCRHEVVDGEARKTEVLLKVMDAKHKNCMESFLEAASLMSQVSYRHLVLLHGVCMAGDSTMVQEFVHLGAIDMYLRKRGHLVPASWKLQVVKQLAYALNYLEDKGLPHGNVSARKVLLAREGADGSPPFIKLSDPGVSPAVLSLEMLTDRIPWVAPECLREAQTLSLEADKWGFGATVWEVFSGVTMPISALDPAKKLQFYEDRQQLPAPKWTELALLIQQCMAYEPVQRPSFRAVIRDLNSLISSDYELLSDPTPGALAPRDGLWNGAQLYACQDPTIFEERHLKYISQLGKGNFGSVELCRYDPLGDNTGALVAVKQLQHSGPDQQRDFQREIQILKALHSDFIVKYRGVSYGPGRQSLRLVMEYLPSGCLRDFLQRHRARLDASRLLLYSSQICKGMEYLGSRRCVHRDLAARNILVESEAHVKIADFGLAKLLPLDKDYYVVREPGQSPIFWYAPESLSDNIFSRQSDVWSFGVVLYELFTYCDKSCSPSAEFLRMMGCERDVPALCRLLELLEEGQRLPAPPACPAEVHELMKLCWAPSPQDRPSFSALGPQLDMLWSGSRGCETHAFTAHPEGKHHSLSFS
Method in brief: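 IC50 values come from variable-slope fits of % conversion inhibition versus log compound concentration. Kinase and inhibitor were preincubated for 10 min at room temperature, and the reaction was then initiated with ATP and substrate and read by mobility shift.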

[2] = target: TYK2 (Homo sapiens, UniProt P29597); assay: experiment of inhibiting kinase activity, TYK2; assay type: biochemical; settings: read-out: inhibition rate TYK2; for inhibition at 0.01 µM: at 10 nM; for inhibition at 0.1 µM: at 100 nM
Protocol: (§1) The inhibition rates of tested compounds on JAK1, JAK2, JAK3, TYK2, CDK7, CDK9, EGFR (T790M) and LRRK2 kinases were measured. The test concentrations of the compounds were 10 nM and 100 nM, and the detection was performed by replicate wells. Alternatively, compounds were 3-fold serial diluted from 10 µM for 10 concentrations in replicate wells.

[3] = target: T2, JAK2 (Mus musculus, UniProt Q62120); assay: JAKs cell activity test: JAK2_pSTAT5 in IL-3-induced BAF3 cells; assay type: cell-based; settings: pSTAT5, IL-3-induced BAF3 cells
T2 construct: endogenous in cells; host or cells: BAF3
Protocol: (§2) THP1 cells were collected by centrifugation, resuspended with 1×HBSS, counted and diluted to a certain cell density. They were inoculated in a 384-well plate and cultured in a saturated humidity incubator with 37 °C and 5% CO2. The compound (DMSO final volume of 0.3%) was added to THP1 cells (10 doses in duplicates) and cultured in a saturated humidity incubator with 37 °C and 5% CO2. hIL-4 was added to stimulate cells and cultured in a saturated humidity incubator with 37 °C and 5% CO2. The lysis solution was added and incubated at room temperature. According to the instructions of AlphaLISA SureFire Ultra p-STAT6 detection kit, the lysis solution was transferred to pSTAT6 detection system, and the ALPHA signal was read by PE Envision microplate reader. The inhibition rate Inh%=((DMSO-sample)/(DMSO-background))×100 was calculated. IC50 was obtained by fitting with GraphPad Prism non-linear regression equation, and y=Bottom+(Top-Bottom)/(1+10^((LogIC50-x)×hillslope)), where x was the concentration of the compound and y was the inhibition rate.
(§3) JAK2_pSTAT5 was tesed in IL-3-induced BAF3 cells according to the above steps, and JAK3_pSTAT5 was tested in IL-2-induced CTLL-2 cells (without serum stimulation) according to the above steps.

[4] = measurement of the solubility of compounds in water and diluted hydrochloric acid; assay type: physicochemical; settings: thermodynamic from solid
Protocol: Example 117: measurement of the solubility of compounds in water and diluted hydrochloric acid
The compounds were dissolved in acetonitrile (LCMS pure) and prepared into standard samples having the concentration gradient of 1000 µg/mL, 500 µg/mL, 250 µg/mL, 125 µg/mL, 62.5 µg/mL, and 31.25 µg/mL.
(§4) About 1.0 mg of the powder of the compound to be tested was weighed and added to 0.3 mL of ultrapure water (pH-6), the resulting mixture was shaked thoroughly at room temperature overnight and centrifuged, and the supernatant was taken and diluted 10 times with acetonitrile. The sample was analyzed after mixing evenly.
as §4, with “153.8 µL of 6 M HCl was pipetted, 20 mL of water was added, and mixed evenly to prepare diluted hydrochloric acid solution A (pH-1.5). About” for “About”, “diluted hydrochloric acid solution A,” for “ultrapure water (pH-6),”, “for 1 hour” for “overnight”
The standard sample and the sample to be tested were analyzed by Shimadzu LCMS-2020, where chromatographic column was Skim-psck GIST 5 µm C18 2.1*[…]; mobile phase A was water and mobile phase B was methanol; and flow rate was 0.3 mL/min. The gradient of B was as the following: 0 min: 10%; 0-1.0 min: 10%; 1.0-2.5 min: 95%; 3.0-4.0 min: 95%; 4.0-4.1 min: 10%; 4.1-6.0 min: 10%.
The relationship between the concentration and peak area of the standard sample was ploted into a standard curve, and the concentration of the sample to be tested was calibrated using this standard curve. Compound solubility = concentration of the sample to be tested × 10 [formula]

[5] = target: EGFR (T790M) (Homo sapiens, UniProt P00533, T790M); assay: experiment of inhibiting kinase activity, EGFR (T790M); assay type: biochemical; settings: at 10 nM; read-out: inhibition rate EGFR(T790M)
Protocol: as §1

[6] = target: Wild-type EGFR kinase protein (Homo sapiens, UniProt P00533); assay: experiment of inhibiting EGFR kinase activity (TR-FRET method); assay type: biochemical
Protocol: The inhibitory effect of the compounds on EGFR kinase activity was measured by TR-FRET method. The diluted solutions of the compounds were transfered to a 384-well plate (784075, Greiner), the plate was sealed and centrifuged at a speed of 1000 g for 1 minute. Wild-type EGFR kinase protein at 2-fold final concentration was prepared in 1×kinase buffer, 5 µL of wild-type EGFR at 2-fold final concentration was added to 384-well plate, the well plate was centrifuged at 1000 g for 30 seconds, and left at room temperature for 10 minutes. A mixture of 2-fold TK-substrate-biotin (2 µM) and ATP was prepared in 1×kinase buffer, and 5 µL of the mixture of 2×TK-substrate-biotin (2 µM) and ATP was added to start the reaction. The well plate was centrifuged at 1000 g for 30 seconds, sealed and left at room temperature for 40 minutes. […] The fluorescence signal values at 615 nm (Cryptate) and 665 nm (XL665) were detected by using Envision 2104 microplate reader. […] The IC50 was calculated with GraphPad 8.0 and the dose-reponse curve of the compound was plotted as follows: y=Bottom+(Top-Bottom)/(1+10^((logic50-x)×hillslope)), where x was logarithm of inhibitor concentration; and y was % inhibition rate.

[7] = target: T3, JAK3 (Mus musculus, UniProt Q62137); assay: JAKs cell activity test: JAK3_pSTAT5 in IL-2-induced CTLL-2 cells; assay type: cell-based; settings: pSTAT5, IL-2-induced CTLL-2 cells
T3 construct: endogenous in cells; host or cells: CTLL-2
T3 sequence (Q62137 1-1100): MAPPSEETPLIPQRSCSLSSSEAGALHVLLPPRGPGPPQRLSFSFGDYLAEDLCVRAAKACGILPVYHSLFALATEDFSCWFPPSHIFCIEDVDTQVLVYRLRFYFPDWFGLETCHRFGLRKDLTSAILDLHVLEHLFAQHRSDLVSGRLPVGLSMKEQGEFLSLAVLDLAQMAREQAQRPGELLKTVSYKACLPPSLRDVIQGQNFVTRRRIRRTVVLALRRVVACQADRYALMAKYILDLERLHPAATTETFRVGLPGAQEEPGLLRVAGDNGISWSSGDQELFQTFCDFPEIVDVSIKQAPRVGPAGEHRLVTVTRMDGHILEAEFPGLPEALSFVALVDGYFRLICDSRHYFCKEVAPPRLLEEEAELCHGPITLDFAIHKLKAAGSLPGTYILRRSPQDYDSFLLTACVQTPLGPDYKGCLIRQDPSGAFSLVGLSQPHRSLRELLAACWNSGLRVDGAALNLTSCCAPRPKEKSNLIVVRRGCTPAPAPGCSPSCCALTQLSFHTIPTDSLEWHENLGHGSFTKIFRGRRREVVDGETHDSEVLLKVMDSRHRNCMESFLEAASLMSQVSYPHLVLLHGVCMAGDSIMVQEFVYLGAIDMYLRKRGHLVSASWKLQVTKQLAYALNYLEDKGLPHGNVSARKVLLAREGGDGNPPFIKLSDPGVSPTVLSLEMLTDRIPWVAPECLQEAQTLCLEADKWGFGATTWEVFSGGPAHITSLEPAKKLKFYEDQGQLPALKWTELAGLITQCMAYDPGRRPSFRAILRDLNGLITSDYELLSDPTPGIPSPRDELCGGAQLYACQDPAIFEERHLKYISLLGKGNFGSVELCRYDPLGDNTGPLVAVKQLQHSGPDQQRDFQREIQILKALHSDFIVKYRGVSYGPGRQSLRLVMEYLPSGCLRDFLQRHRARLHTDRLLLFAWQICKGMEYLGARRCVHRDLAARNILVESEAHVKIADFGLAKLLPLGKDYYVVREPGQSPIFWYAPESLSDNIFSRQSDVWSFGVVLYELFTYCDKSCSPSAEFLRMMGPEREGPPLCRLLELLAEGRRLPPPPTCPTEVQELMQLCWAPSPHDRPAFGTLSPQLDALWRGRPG
Protocol: as §2, §3

TYK2, sequence (P29597 whole entry): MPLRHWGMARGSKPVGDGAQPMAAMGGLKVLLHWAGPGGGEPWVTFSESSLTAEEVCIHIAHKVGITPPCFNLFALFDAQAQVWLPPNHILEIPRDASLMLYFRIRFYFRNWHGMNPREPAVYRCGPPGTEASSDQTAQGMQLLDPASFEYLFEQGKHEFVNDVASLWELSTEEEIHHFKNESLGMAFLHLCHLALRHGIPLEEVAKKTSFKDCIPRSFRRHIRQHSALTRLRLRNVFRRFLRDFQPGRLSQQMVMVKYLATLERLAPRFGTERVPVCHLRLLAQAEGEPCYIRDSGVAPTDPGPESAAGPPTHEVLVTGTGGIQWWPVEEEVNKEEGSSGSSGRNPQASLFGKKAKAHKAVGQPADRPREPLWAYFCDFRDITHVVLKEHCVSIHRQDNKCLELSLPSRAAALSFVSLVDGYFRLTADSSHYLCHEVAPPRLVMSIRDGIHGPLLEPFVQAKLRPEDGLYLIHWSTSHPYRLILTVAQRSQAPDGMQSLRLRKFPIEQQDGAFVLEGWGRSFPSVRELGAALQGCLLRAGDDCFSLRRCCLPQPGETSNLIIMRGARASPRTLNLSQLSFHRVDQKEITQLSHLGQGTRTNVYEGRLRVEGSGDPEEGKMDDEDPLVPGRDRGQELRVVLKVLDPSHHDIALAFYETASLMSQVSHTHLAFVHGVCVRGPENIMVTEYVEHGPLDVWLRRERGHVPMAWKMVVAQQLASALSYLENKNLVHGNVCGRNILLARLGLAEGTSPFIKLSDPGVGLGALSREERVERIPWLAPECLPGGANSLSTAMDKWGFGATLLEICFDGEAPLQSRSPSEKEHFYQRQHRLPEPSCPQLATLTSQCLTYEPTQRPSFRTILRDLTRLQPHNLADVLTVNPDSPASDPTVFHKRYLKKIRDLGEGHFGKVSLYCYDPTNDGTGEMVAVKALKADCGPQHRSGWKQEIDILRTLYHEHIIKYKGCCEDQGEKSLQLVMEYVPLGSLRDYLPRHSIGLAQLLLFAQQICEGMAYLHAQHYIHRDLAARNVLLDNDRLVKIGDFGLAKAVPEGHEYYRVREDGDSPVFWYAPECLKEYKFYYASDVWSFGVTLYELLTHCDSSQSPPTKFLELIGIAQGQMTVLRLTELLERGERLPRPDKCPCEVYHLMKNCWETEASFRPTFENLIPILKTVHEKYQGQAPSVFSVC
T2 sequence (Q62120 whole entry): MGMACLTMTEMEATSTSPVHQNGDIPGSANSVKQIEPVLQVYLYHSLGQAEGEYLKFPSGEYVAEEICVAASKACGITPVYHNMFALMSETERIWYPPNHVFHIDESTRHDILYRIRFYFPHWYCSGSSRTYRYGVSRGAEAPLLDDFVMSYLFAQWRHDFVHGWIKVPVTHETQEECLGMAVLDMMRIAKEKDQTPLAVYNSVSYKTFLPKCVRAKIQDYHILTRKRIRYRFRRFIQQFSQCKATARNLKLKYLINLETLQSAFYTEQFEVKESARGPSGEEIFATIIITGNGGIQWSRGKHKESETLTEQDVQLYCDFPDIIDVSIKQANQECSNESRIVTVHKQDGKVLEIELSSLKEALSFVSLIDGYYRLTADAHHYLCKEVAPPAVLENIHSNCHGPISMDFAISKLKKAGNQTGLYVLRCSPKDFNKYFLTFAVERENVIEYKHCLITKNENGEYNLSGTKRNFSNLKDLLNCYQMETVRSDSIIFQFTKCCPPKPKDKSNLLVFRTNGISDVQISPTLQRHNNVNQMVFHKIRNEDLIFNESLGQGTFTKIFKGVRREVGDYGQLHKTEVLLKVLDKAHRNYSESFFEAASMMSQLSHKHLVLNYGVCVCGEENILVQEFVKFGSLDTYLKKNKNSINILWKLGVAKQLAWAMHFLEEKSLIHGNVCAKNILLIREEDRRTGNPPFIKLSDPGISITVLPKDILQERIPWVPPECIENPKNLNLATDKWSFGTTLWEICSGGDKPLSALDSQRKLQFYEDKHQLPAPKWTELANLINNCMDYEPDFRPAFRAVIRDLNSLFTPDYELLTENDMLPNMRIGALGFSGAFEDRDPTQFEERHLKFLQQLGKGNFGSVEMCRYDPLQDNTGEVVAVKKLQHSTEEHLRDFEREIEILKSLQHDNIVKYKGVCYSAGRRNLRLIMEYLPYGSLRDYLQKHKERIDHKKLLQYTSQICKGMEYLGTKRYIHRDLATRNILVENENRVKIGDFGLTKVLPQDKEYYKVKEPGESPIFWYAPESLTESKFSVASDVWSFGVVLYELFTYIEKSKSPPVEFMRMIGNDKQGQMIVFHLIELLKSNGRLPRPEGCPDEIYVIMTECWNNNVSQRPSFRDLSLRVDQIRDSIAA
EGFR (T790M), sequence (P00533 25-1210 T790M): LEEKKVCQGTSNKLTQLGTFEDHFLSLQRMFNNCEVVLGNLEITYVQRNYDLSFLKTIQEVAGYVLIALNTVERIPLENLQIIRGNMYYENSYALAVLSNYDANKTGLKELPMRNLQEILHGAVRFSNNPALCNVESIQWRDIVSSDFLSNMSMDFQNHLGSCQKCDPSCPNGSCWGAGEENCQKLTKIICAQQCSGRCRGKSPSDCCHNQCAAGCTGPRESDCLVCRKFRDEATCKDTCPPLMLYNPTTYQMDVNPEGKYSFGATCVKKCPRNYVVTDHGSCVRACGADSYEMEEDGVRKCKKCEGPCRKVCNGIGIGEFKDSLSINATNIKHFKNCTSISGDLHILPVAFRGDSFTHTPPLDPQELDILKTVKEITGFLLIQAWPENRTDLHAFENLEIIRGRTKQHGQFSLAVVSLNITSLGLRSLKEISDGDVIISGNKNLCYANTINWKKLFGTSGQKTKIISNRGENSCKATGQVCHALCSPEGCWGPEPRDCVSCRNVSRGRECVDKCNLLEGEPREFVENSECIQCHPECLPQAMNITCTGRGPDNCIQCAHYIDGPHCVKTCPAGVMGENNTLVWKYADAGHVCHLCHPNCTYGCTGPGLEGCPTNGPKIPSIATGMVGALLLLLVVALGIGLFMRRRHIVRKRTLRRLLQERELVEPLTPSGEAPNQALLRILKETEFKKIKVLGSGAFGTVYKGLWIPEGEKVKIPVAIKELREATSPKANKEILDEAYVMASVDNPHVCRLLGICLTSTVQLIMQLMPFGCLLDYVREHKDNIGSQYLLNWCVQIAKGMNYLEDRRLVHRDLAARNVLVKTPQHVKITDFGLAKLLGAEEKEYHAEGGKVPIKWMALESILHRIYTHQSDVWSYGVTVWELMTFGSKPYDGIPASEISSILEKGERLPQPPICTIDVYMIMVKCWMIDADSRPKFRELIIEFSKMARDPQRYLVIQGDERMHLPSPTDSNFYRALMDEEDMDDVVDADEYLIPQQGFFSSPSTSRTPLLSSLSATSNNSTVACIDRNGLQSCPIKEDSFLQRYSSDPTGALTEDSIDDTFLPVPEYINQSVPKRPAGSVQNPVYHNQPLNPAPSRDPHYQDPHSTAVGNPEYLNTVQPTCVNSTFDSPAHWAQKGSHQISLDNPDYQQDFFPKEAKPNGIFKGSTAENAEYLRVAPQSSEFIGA
Wild-type EGFR kinase protein, sequence (P00533 25-1210): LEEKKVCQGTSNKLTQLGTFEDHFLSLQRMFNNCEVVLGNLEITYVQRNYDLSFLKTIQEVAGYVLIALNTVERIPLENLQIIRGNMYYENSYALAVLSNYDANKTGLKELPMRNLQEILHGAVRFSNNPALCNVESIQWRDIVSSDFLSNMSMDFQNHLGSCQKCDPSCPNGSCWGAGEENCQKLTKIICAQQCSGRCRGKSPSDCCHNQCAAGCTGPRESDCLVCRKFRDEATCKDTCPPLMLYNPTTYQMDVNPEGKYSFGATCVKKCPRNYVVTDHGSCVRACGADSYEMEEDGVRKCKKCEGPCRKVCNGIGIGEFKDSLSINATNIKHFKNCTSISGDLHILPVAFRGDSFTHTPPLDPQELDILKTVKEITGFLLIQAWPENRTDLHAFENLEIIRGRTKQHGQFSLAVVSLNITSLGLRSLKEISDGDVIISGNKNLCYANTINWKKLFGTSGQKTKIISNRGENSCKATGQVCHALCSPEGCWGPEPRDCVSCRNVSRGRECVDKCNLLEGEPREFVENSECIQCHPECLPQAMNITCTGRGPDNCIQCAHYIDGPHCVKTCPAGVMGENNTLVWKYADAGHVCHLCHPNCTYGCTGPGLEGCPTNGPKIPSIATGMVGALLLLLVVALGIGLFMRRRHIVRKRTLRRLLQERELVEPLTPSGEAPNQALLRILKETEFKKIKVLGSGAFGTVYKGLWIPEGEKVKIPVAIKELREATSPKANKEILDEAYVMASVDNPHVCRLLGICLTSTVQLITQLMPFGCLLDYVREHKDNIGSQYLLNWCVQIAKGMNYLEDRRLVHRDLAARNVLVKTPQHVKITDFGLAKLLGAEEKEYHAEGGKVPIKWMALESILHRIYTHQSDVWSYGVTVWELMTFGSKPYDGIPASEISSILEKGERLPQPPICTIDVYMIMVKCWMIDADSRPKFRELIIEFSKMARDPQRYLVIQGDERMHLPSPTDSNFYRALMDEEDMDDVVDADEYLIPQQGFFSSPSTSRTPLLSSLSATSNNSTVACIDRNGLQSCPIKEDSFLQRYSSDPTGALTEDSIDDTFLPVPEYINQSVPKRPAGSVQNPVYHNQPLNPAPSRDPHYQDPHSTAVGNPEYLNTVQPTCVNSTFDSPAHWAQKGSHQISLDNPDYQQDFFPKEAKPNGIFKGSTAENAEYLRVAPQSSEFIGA

Row | inhibition at 0.01 µM ([1]; at 10 nM, read-out: inhibition rate JAK3) [%] | inhibition at 0.1 µM ([1]; at 100 nM, read-out: inhibition rate JAK3) [%] | IC50 [1] [nM] | inhibition at 0.01 µM [2] [%] | inhibition at 0.1 µM [2] [%] | EC50 [3] [nM] | solubility at 1 h ([4]; simulated gastric fluid, diluted hydrochloric acid solution A (pH-1.5), room temperature, 1 hour) [µg/mL] | solubility ([4]; ultrapure water (pH-6), room temperature overnight) [µg/mL] | EC50 [7] [nM] | Compound | inhibition at 0.01 µM [5] [%] | IC50 [6] [nM]
1 | 40 to 79 | > 80 | < 50 | 40 to 79 | > 80 | 50 to 500 |  |  |  | CN1CCOc2ccc(Nc3nc(-c4cnn(C(CC#N)C5CCCC5)c4)c4cc[nH]c4n3)cc2OCC1 (centres unmarked) [Example 27] |  | 
2 |  |  | < 50 | > 80 | > 80 | 50 to 500 |  |  |  | CCS(=O)(=O)N1CC(CC#N)(n2cc(-c3nc(Nc4ccc5c(c4)OCCN(C)CCO5)nc4[nH]ccc34)cn2)C1 [Example 28] |  | 
3 |  |  |  |  |  |  | > 3730 | 886 (≈ 1690 µM) | 50 to 500 | C=CC(=O)Nc1cccc(Nc2nc(Nc3ccc4c(c3)OCCOCCN(C)CCO4)ncc2Cl)c1 [Example 54, N-(3-((5-chloro-2-((7-methyl-2,3,6,7,8,9-hexahydro-5H-benzo[b][1,4,7]trioxa[10]azacyclododecan-13-yl)amino)pyrimidin-4-yl)amino)phenyl)acrylamide] | > 80 | < 50
4 |  |  |  |  |  |  |  |  |  | C=CC(=O)Nc1cccc(Nc2nc(Nc3ccc4c(c3)OCCN(C)CCOCCO4)ncc2Cl)c1 [Example 56, N-(3-((5-chloro-2-((7-methyl-2,3,6,7,8,9-hexahydro-5H-benzo[b][1,4,7]trioxa[10]azacyclododecan-12-yl)amino)pyrimidin-4-yl)amino)phenyl)acrylamide] | > 80 | < 50
